The source of these data is patent US9662329B2, “Use of survivin antagonists in polyomavirus-related disease” (University of Pittsburgh—Of the Commonwealth System of …, priority 2012, dated 2017).

Holding throughout (type): cell-based, human
One test deals with MKL-1. As to the kind of experiment: Cell Titer Glo dose-response study. An excerpt:
(§1) Seven Merkel cell carcinoma cell lines: MKL-1, MKL-2, MS-1, UISO, MCC13, MCC26 and WaGa (kind gift of Jurgen Becker (Houben et al., Merkel cell polyomavirus-infected Merkel cell carcinoma cells require expression of viral T antigens. J Virol 84, 7064 (July, 2010); Ronan et al., Merkel cell carcinoma: in vitro and in vivo characteristics of a new cell line. J Am Acad Dermatol 29, 715 (November, 1993); Rosen et al., Establishment and characterization of a neuroendocrine skin carcinoma cell line. Lab Invest 56, 302 (March, 1987)); NCI-H69 small cell lung cancer cell line (ATCC); 293 human embryonic kidney cells (ATCC); U2OS osteosarcoma cell line (kind gift of Ole Gjoerup); BJhTERT immortalized foreskin fibroblast cell line (kind gift of Ole Gjoerup); and BJ primary foreskin fibroblasts (ATCC) were used to screen and evaluate the small molecules examined in this study (Houben et al., J Virol 84, 7064 (July, 2010); Ronan et al., J Am Acad Dermatol 29, 715 (November, 1993); Rosen et al., Lab Invest 56, 302 (March, 1987)). The Merkel cell lines and NCI-H69 were grown in RPMI 1640 supplemented with 10% fetal calf serum, penicillin and streptomycin at 37° C. in humidified air containing 5% CO2. The remaining cell lines were grown in DMEM supplemented with 10% fetal calf serum.
(§2) For EC50 measurements, dose-response curves were established for 17 drugs obtained individually in bulk stocks. Iodoacetamide (I1149), sanguarine chloride (S5890), NSC95397 (N1786), chelerythrine chloride (C2932), calmidazolium chloride (C3930), tetraethylthiuram disulfide (T1132), bay 11-7085 (B5681), quinacrine dihydro chloride (Q3251), ellipticine (E3380), amsacrine hydrochloride (A9809) and nutlin-3 (N6287) were purchased from Sigma Aldrich, USA.
(§3) Compounds that met the selection criteria <10% cell survival were purchased or obtained in bulk from NCI/NIH Developmental Therapeutics Program. Serial drug dilutions from 10^−4 M to 10^−9 M were used on MCC and non-MCC cell lines. Cells were seeded into 384-well plates at 6000 cells in 50 μl of medium per well. After 24 hours, 25 μl of 3× drugs were added at increasing concentration to each well. Cell viability was then measured using Cell Titer Glo (Promega) kit following manufacturer's instructions as described previously. Each drug concentration was tested in triplicate for each cell line and experiments were repeated twice. EC50 doses for the drugs were calculated using a four parameter logistic equation (GraphPad Prism).

Another test deals with MS-1. The test is described as follows: Cell Titer Glo dose-response study.
From the text: as §1, §2, §3

The next test has as its system MKL-2. As to the kind of experiment: Cell Titer Glo dose-response study. As to conditions: read-out: EC50 concentrations for MCC cell lines, MKL-2.
From the text: as §1, §2, §3

A further test deals with WaGa. The test is described as follows: Cell Titer Glo dose-response study. As to conditions: read-out: EC50 concentrations for MCC cell lines, WaGa.
From the text: as §1, §2, §3

The next test has as its system UISO. The test is described as follows: Cell Titer Glo dose-response study. As to conditions: read-out: EC50 concentrations for MCC cell lines, UISO.
From the text: as §1, §2, §3

The subject of a further test is MKL-1 cells. As to the kind of experiment: MKL-1 cytotoxicity screen (Cell Titer Glo). As to conditions: screened at 10^-5 M; 48 hours; cut-off <10% cell survival.
[1] abbreviates: Homo sapiens, MKL-1 (MCV-positive), Cell Titer Glo, read-out: EC50 concentrations for MCC cell lines, MKL-1.
The mark [2] stands for this setting: Homo sapiens, MS-1 (MCV-positive), Cell Titer Glo, read-out: EC50 concentrations for MCC cell lines, MS-1.
Where [3] appears, read: Homo sapiens, MKL-2 (MCV-positive), Cell Titer Glo.
The mark [4] stands for this setting: Homo sapiens, WaGa (MCV-positive), Cell Titer Glo.
Setting [5] is: Homo sapiens, UISO (MCV-negative), Cell Titer Glo.
[6] abbreviates: MKL-1 (MCV-positive), Cell Titer Glo, read-out: EC50 concentrations for MCC cell lines, MKL-1.
The mark [7] stands for this setting: MS-1 (MCV-positive), Cell Titer Glo, read-out: EC50 concentrations for MCC cell lines, MS-1.
[8] abbreviates: MKL-2 (MCV-positive), Cell Titer Glo.
The mark [9] stands for this setting: WaGa (MCV-positive), Cell Titer Glo.
Where [10] appears, read: UISO (MCV-negative), Cell Titer Glo.
Setting [11] is: Homo sapiens, MKL-1, read-out: EC50 concentrations for MCC cell lines, MKL-1.
Where [12] appears, read: Homo sapiens, MS-1, read-out: EC50 concentrations for MCC cell lines, MS-1.

SMILES strings stand for the structures. pEC50: −log10 of the molar value. Where a name gives a salt, the structure may show the parent alone. Read-outs that look alike come from different tables or passages of the source.

From the text for MKL-1 cells: A total of 1,360 compounds were used in the initial screening survey: 1,280 compounds from LOPAC1280 library (Sigma Aldrich, accessed through University of Pittsburgh Drug Discovery Institute), 89 compounds from NCI's Approved Oncology Drug Set II (from The NCI/DTP Open Chemical Repository, http://dtp.cancer.gov), 6 LT ATPase inhibitors (MAL2-11B, MAL3-101, MAL2-51, DMT3084, bithionol and hexachlorophene (Wright et al., Inhibition of Simian Virus 40 replication by targeting the molecular chaperone function and ATPase activity of T antigen. Virus Res 141, 71 (April, 2009); Seguin et al., High-Throughput Screening Identifies a Bisphenol Inhibitor of SV40 Large T Antigen ATPase Activity. […] NCI Approved Oncology Drug Set II, SV40 LT ATPase inhibitors and MDM2 inhibitors were reconstituted as recommended by supplier. […] Reconstituted compounds were diluted in cell culture media to obtain a 100× stock concentration prior to addition to cells. Doxorubicin (positive control) was obtained from Sigma-Aldrich and DMSO (negative control) was obtained from Fisher Bioreagents.
MKL-1 cells were seeded at a density of 6000 cells in 50 μl of medium per well (120 cells/μl) in opaque polypropylene 384-well microplates (#781080, Greiner Bio-One, Germany). Cells were incubated at 37° C. in humidified air containing 5% CO2 for 24 hours. Thereafter, 25 μl of medium containing 3× drug per well was added to the plates, which were incubated for an additional 48 hours. Cell viability was measured using Cell Titer Glo (Promega) following manufacturer's instructions.
The LOPAC1280 library was screened at a final concentration of 10 μM for each compound and the NCI library was screened at a final concentration of 1 μM for each compound.
Cell Titer Glo assays were performed in duplicate using 384 well plates, each containing 24 wells with 1% DMSO (negative control) and 32 wells with 200 μM doxorubicin (positive control). Screening results were evaluated on the basis of percentage cell survival normalized to the DMSO control (100%). Positive candidates were identified using a cut-off value of <10% cell survival.

For `COc1cc(NS(C)(=O)=O)ccc1Nc1c2ccccc2nc2ccccc12` [Amsacrine hydrochloride], the pEC50 with MKL-1 (setting [1]) is 6.96; in the test on MS-1 (setting [2]), 5.12; in the test on MKL-2 (setting [3]) it was 5.52; in the test with WaGa (setting [4]), 6.60; with UISO (setting [5]) it was 5.59.
Turning to `CC(C)(C)c1ccc(S(=O)(=O)/C=C/C#N)cc1` [Bay 11-7085], the pEC50 in the test with MKL-1 (setting [6]) was 5.85; in the test with MS-1 (setting [7]), 5.57; in the test on MKL-2 (setting [8]), 5.77; in the test with WaGa (setting [9]), 5.92; with UISO (setting [10]), 5.35.
In the case of `Clc1ccc(C(c2ccc(Cl)cc2)n2cc[n+](CC(OCc3ccc(Cl)cc3Cl)c3ccc(Cl)cc3Cl)c2)cc1` (centres unmarked) [Calmidazolium chloride], the pEC50 with MKL-1 (setting [1]) is 5.66; with MS-1 (setting [2]), 5.68; with MKL-2 (setting [3]) it was 5.77; in the test on WaGa (setting [4]) it was 5.68; with UISO (setting [5]) it was 5.70.
Regarding `COc1ccc2c(c[n+](C)c3c4cc5c(cc4ccc23)OCO5)c1OC` [Chelerythrine chloride], the pEC50 in the test with MKL-1 (setting [1]) was 6.22; with MS-1 (setting [2]) it was 6.28; in the test with MKL-2 (setting [3]), 6.19; with WaGa (setting [4]), 6.15; in the test on UISO (setting [5]), 5.43.
For the compound `COc1cccc2c1C(=O)c1c(O)c3c(c(O)c1C2=O)C[C@@](O)(C(C)=O)C[C@@H]3O[C@H]1C[C@H](N)[C@H](O)[C@H](C)O1` [Daunorubicin], the pEC50 in the test on MKL-1 (setting [11]) was 7.82; in the test with MS-1 (setting [12]), 6.82; in the test on MKL-2 (Homo sapiens), 7.07; in the test on WaGa (Homo sapiens) it was 7.74; in the test with UISO (Homo sapiens), 5.85.
Turning to `COc1cccc2c1C(=O)c1c(O)c3c(c(O)c1C2=O)C[C@@](O)(C(=O)CO)C[C@@H]3O[C@H]1C[C@H](N)[C@H](O)[C@H](C)O1` [Doxorubicin], the pEC50 in the test on MKL-1 (setting [1]) was 6.68; in the test on MS-1 (setting [2]), 6.43; in the test on MKL-2 (setting [3]), 7.66; with WaGa (setting [4]) it was 7.66; with UISO (setting [5]), 6.60.
For the compound `Cc1c2ccncc2c(C)c2c1[nH]c1ccccc12` [Ellipticine], the pEC50 in the test with MKL-1 (setting [1]) was 5.49; in the test on MS-1 (setting [2]), 5.16; in the test on MKL-2 (setting [3]), 5.19; in the test with WaGa (setting [4]) it was 5.52; in the test with UISO (setting [5]), 5.96.
Take `NC(=O)CI` [Iodoacetamide]: the pEC50 in the test on MKL-1 (setting [11]) is 6.54; with MS-1 (setting [12]), 6.19; with MKL-2 (Homo sapiens), 6.52; in the test with WaGa (Homo sapiens), 6.43; in the test with UISO (Homo sapiens), 5.60.
In the case of `O=C1c2c(O)ccc(O)c2C(=O)c2c(NCCNCCO)ccc(NCCNCCO)c21` [Mitoxantrone], the pEC50 is 8.22 with MKL-1 (setting [1]); 5.80 in the test on MS-1 (setting [2]); 5.89 in the test on MKL-2 (setting [3]); 7.85 with WaGa (setting [4]); 6.01 in the test with UISO (setting [5]).
As to `O=C1C(SCCO)=C(SCCO)C(=O)c2ccccc21` [NSC 95397], the pEC50 in the test on MKL-1 (setting [6]) is 5.92; with MS-1 (setting [7]), 5.74; in the test on MKL-2 (setting [8]), 5.82; in the test with WaGa (setting [9]), 6.14; in the test with UISO (setting [10]), 5.55.
Regarding `CCN(CC)CCCC(C)Nc1c2ccc(Cl)cc2nc2ccc(OC)cc12` (centres unmarked) [Quinacrine dihydrochloride], the pEC50 was 5.29 in the test with MKL-1 (setting [11]); 5.31 in the test with MS-1 (setting [12]); 5.34 in the test on MKL-2 (Homo sapiens); 5.28 in the test with WaGa (Homo sapiens); 5.15 with UISO (Homo sapiens).
Taken in the same sequence, the figures for `C[n+]1cc2c3c(ccc2c2ccc4cc5c(cc4c21)OCO5)OCO3` [Sanguinarine chloride] were 5.28, 5.31, 5.08, 5.60 and 5.19.
For the compound `COc1cc([C@@H]2c3cc4c(cc3[C@@H](O[C@@H]3O[C@@H]5CO[C@@H](c6cccs6)O[C@H]5[C@H](O)[C@H]3O)[C@H]3COC(=O)[C@H]23)OCO4)cc(OC)c1O` [Teniposide], the pEC50 is 8.00 in the test with MKL-1 (setting [1]); 5.52 with MS-1 (setting [2]); 5.55 with MKL-2 (setting [3]); 7.59 in the test on WaGa (setting [4]); 5.14 with UISO (setting [5]).
Taken in the same sequence, the figures for `CCN(CC)C(=S)SSC(=S)N(CC)CC` [Tetraethylthiuram disulfide] were 6.31, 5.20, 6.72, 5.96 and 4.89.
For the compound `CC[C@@]1(O)C(=O)OCc2c1cc1n(c2=O)Cc2cc3c(CN(C)C)c(O)ccc3nc2-1` [Topotecan], the pEC50 in the test on MKL-1 (setting [1]) is 7.55; in the test on MS-1 (setting [2]), 6.21; in the test on MKL-2 (setting [3]) it was 6.37; in the test with WaGa (setting [4]), 7.82; in the test with UISO (setting [5]), 6.77.
For `CCC(=O)N1CCN(c2ccc(-n3c(=O)ccc4cnc5ccc(-c6cnc7ccccc7c6)cc5c43)cc2C(F)(F)F)CC1` [Torin1], the “activity in screen (>90% inhibition of MKL-1 cell growth)” value in the test with MKL-1 cells is recorded as “not active”.
`CCCCC(=O)OCC(=O)[C@]1(O)Cc2c(O)c3c(c(O)c2[C@@H](O[C@H]2C[C@H](NC(=O)C(F)(F)F)[C@H](O)[C@H](C)O2)C1)C(=O)c1c(OC)cccc1C3=O` [Valrubicin]: the pEC50 is 6.64 in the test on MKL-1 (setting [1]); 5.00 with MS-1 (setting [2]); 5.55 with MKL-2 (setting [3]); 6.49 in the test with WaGa (setting [4]); 5.40 in the test on UISO (setting [5]).
Consider `Nc1nc2c(ncn2COCCO)c(=O)[nH]1` [acyclovir], for which the “activity in screen (>90% inhibition of MKL-1 cell growth)” value in the test with MKL-1 cells was “not active”.
On the same count and under the same terms, in the case of `CO[C@H]1C[C@@H]2CC[C@@H](C)[C@@](O)(O2)C(=O)C(=O)N2CCCC[C@H]2C(=O)O[C@H]([C@H](C)C[C@@H]2CC[C@@H](OCCO)[C@H](OC)C2)CC(=O)[C@H](C)/C=C(\C)[C@@H](O)[C@@H](OC)C(=O)[C@H](C)C[C@H](C)/C=C/C=C/C=C/1C` [everolimus] it was “not active”; in that of `COc1ccc(C2=N[C@@H](c3ccc(Cl)cc3)[C@@H](c3ccc(Cl)cc3)N2C(=O)N2CCNC(=O)C2)c(OC(C)C)c1` [nutlin-3], “not active”; in that of `CO[C@H]1C[C@@H]2CC[C@@H](C)[C@@](O)(O2)C(=O)C(=O)N2CCCC[C@H]2C(=O)O[C@H]([C@H](C)C[C@@H]2CC[C@@H](O)[C@H](OC)C2)CC(=O)[C@H](C)/C=C(\C)[C@@H](O)[C@@H](OC)C(=O)[C@H](C)C[C@H](C)/C=C/C=C/C=C/1C` [rapamycin], “not active”.
On the same count and under the same terms, in the case of `NC(=O)c1ncn([C@@H]2O[C@H](CO)[C@@H](O)[C@H]2O)n1` [ribavirin] it was “not active”.
